For test [1], the system named is thrombomodulin (TM) antigen in normal human umbilical vein endothelial cells (HUVECs). The test can be described thus: TM antigen level in HUVECs by enzyme immunoassay after 24 h incubation with statin. The note with it: 10^-7 M to 10^-3 M, control (0.01% DMSO) = 100%, FIG. 1. The test is classed as cell-based. How it is done:
Normal human umbilical vein endothelial cells (HUVECs) were plated at a density of 2×10^5 cells/ well in a 24-well plate with HuMedia-EG2 medium (Kurabo Inc.) to which 2% (vol/vol) fetal bovine serum, 50 μg/ml gentamicin, 50 ng/ml amphotericin B, 10 ng/ml hEGF, 5 ng/ml hFGF-B, 1 μg/ml hydrocortisone and 10 μg/ml heparin were added. Subsequently, each test substance (pitavastatin, fluvastatin and pravastatin) was added to the medium at a final concentration of 10^−7 M to 10^−3 M, and incubated for 24 hours with 5% CO2 at 37° C. After the incubation, the cells were washed 3 times with a phosphate buffer solution (pH 7.4), and suspended in 50 mmol/L Tris-HCl (pH 7.4) that contained 0.15 mol/L NaCl, 0.5% Triton X-100 and 1 mmol/L benzamide hydrchloride, then, TM was extracted. The levels of TM antigen were measured by enzyme immunoassay using the monoclonal antibodies TMmAb 2, 11 and 20. In the case where the value of the control (containing an equivalent weight of DMSO (0.01%)) is assigned to 100%, the effects on the TM antigen levels existing in the cellular proteins due to the addition of each test substance were measured.

Test [2] relates to TM m-RNA expression in HUVECs. The test is described as follows: TM mRNA expression in HUVECs by Northern blot, time course. The test is classed as cell-based, human. The note with it: 10^-5 M, incubated for the indicated time, FIG. 2. The protocol: HUVECs were plated in HuMedia-EG2 medium (Kurabo Inc.) to which 2% (vol/vol) fetal bovine serum, 50 μg/ml gentamicin, 50 ng/ml amphotericin B, 10 ng/ml hEGF, 5 ng/ml hFGF-B, 1 μg/ml hydrocortisone and 10 μg/ml heparin were added. Subsequently, pitavastatin (at a final concentration of 10^−5 M) was added to the medium, and incubated for the indicated time with 5% CO2 at 37° C. Total RNA was extracted by using TRIZOL reagent (Life Technologies, Inc.) and the levels of TM m-RNA expression were measured by the Northern blot method, which is a usual method.

This note sets out measurements from US20080275081A1, “Novel thrombomodulin expression promoters” (Kowa Company, Ltd., priority 2002, published 2008).

Turning to `O=C(O)C[C@H](O)C[C@H](O)/C=C/c1c(C2CC2)nc2ccccc2c1-c1ccc(F)cc1` [pitavastatin, (+)-(3R, 5S, 6E)-7-[2-cyclopropyl-4-(4-fluorophenyl)-3-quinolyl]-3,5-dihydroxy-6-heptenoic acid], in test [1], the “ratio of the TM antigen level/cellular protein to the control” value was “significant increase level”. Besides, the “ratio of the TM expression level (TM m-RNA) to the control, time course” value in test [2] is on record as “increased drastically after 12 hours”.
